Measured values as given in patent publication US20060240049A1, “Anti-protozoal compositions comprising diclazuril” (priority 2003, published 2006).

Tests used:
[1] = in water; cited from earlier work
[2] = Stability of sodium diclazuril in aqueous solution; format: physicochemical; settings: degrades into its keto-degradant

Row | Structure (SMILES) | aqueous solubility, saturation concentration [1] | stability in an aqueous solution [2]
1 | N#CC(c1ccc(Cl)cc1)c1c(Cl)cc(-n2ncc(=O)[nH]c2=O)cc1Cl (centres unmarked) [diclazuril] | below 1 μg/L | –
2 | N#CC(c1ccc(Cl)cc1)c1c(Cl)cc(-n2ncc(=O)[n-]c2=O)cc1Cl.[Na+] (centres unmarked) [sodium diclazuril] | – | unstable
